One compound from patent US10517910B2 (priority 2015, dated 2019) can be followed below.

SMILES strings stand for the structures. Counter-ions that a name gives are not always drawn.

The subject of the assay is HuH-7 cells infected with JX-594 virus. Format: cell-based.

Take `COc1cccc2c1C(=O)c1c(O)c3c(c(O)c1C2=O)C[C@@](O)(C(=O)CO)C[C@@H]3O[C@H]1C[C@H](N)[C@H](O)[C@H](C)O1` [Adriamicyn, Doxorubicin hydrochloride]: the “JX-594 viral replication in vitro” value is given as “decrease” and the viral output result is “decreased”.
